For 19 compounds, response vs control in vivo and LD50 results are on record in patent US4760136A, “Chartreusin derivatives and salts thereof” (Ishihara Sangyo Kaisha, Ltd., priority 1984, dated 1988).

As usually defined, the LD50 is the dose expected to kill half of the subjects tested. Read a high LD50 as lower toxicity.

One data set relates to P-388 leukemia cells. Put plainly: Antitumor activity: P-388 leukemia cells inoculated intraperitoneally, drug administered intravenously, BDF1 mice. Format: in vivo. Particulars: Mus musculus, P388, iv, BDF1 mice, P-388 i.p., read-out: T/C (%) of MST; for response vs control in vivo at 40 mg/kg: dose c: 40 mg/kg × 3, i.v. on days 1, 5 and 9; for response vs control in vivo at 80 mg/kg: dose f: 80 mg/kg × 3, i.v. on days 1, 5 and 9; for response vs control in vivo at 60 mg/kg: dose e: 60 mg/kg × 3, i.v. on days 1, 5 and 9. In a few lines: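 Drug dosing was intravenous on the first, fifth and ninth days after intraperitoneal inoculation of P-388 leukemia cells (1×10^6 per mouse) into BDF1 mice. Vehicles were physiological saline alone, or saline with small amounts of sodium carboxymethyl cellulose or Tween-80.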

Data set [1] can be described thus: Acute toxicity, intravenous (once), ddY mice. Format: in vivo. The settings on record: mouse, in vivo, iv, formulated per Preparation Example. From the text: In Table 7 are shown acute toxicity values (LD50, mg/kg) in ddY mice in the case of intravenously administering (once) each of the compounds of this invention in the form of preparations shown in the Preparation Examples shown in Table 7.

Turning to `CO[C@H]1[C@@H](O)[C@@H](C)O[C@H](O[C@H]2[C@H](Oc3cccc4c(OC(=O)C5CC5C)c5c(=O)oc6ccc(C)c7c(=O)oc(c34)c5c67)O[C@H](C)[C@@H]3OC(C)(C)O[C@@H]32)[C@@H]1O` (stereo partly shown) [Compound No. 178], in the data set on P-388 leukemia cells, the response vs control in vivo at 40 mg/kg was 142% and the response vs control in vivo at 80 mg/kg was 181%. The same compound had an LD50 in data set [1] not below 80 mg/kg.
In the case of `CO[C@H]1[C@@H](O)[C@@H](C)O[C@H](O[C@H]2[C@H](Oc3cccc4c(OC(=O)c5ccc(Br)cc5)c5c(=O)oc6ccc(C)c7c(=O)oc(c34)c5c67)O[C@H](C)[C@@H]3OC(C)(C)O[C@@H]32)[C@@H]1O` [Compound No. 179], in the data set with P-388 leukemia cells, the response vs control in vivo at 40 mg/kg is 136% and the response vs control in vivo at 80 mg/kg was found to be 208%. Besides, the 50% lethal dose (LD50) in data set [1] was not below 80 mg/kg.
The matching figures for `CO[C@H]1[C@@H](O)[C@@H](C)O[C@H](O[C@H]2[C@H](Oc3cccc4c(OC(=O)c5ccc(Cl)cc5Cl)c5c(=O)oc6ccc(C)c7c(=O)oc(c34)c5c67)O[C@H](C)[C@@H]3OC(C)(C)O[C@@H]32)[C@@H]1O` [Compound No. 180]: 145%, 208% and not below 80 mg/kg.
The matching figures for `CO[C@H]1[C@@H](O)[C@@H](C)O[C@H](O[C@H]2[C@H](Oc3cccc4c(OC(=O)c5ccccc5Cl)c5c(=O)oc6ccc(C)c7c(=O)oc(c34)c5c67)O[C@H](C)[C@@H]3OC(C)(C)O[C@@H]32)[C@@H]1O` [Compound No. 181]: 145%, 208% and not below 80 mg/kg.
`CO[C@H]1[C@@H](O)[C@@H](C)O[C@H](O[C@H]2[C@H](Oc3cccc4c(OC(=O)c5ccc(C(F)(F)F)cc5)c5c(=O)oc6ccc(C)c7c(=O)oc(c34)c5c67)O[C@H](C)[C@@H]3OC(C)(C)O[C@@H]32)[C@@H]1O` [Compound No. 182]: in the data set on P-388 leukemia cells, the response vs control in vivo at 40 mg/kg stood at 153% and the response vs control in vivo at 80 mg/kg came to 192%. This compound also showed an LD50 in data set [1] not below 80 mg/kg.
The matching figures for `CO[C@H]1[C@@H](O)[C@@H](C)O[C@H](O[C@H]2[C@H](Oc3cccc4c(OC(=O)c5ccc(C#N)cc5)c5c(=O)oc6ccc(C)c7c(=O)oc(c34)c5c67)O[C@H](C)[C@@H]3OC(C)(C)O[C@@H]32)[C@@H]1O` [Compound No. 183]: 153%, 192% and not below 80 mg/kg.
As for `COc1cccc(C(=O)Oc2c3cccc(O[C@@H]4O[C@H](C)[C@@H]5OC(C)(C)O[C@@H]5[C@H]4O[C@H]4O[C@H](C)[C@H](O)[C@H](OC)[C@H]4O)c3c3oc(=O)c4c(C)ccc5oc(=O)c2c3c54)c1` [Compound No. 184], in the data set on P-388 leukemia cells, the response vs control in vivo at 40 mg/kg came out at 162% and the response vs control in vivo at 80 mg/kg amounted to 199%. Also, in data set [1], the LD50 is not below 80 mg/kg.
The matching figures for `CO[C@H]1[C@@H](O)[C@@H](C)O[C@H](O[C@H]2[C@H](Oc3cccc4c(OC(=O)c5ccc(Cl)cc5)c5c(=O)oc6ccc(C)c7c(=O)oc(c34)c5c67)O[C@H](C)[C@@H]3OC(C)(C)O[C@@H]32)[C@@H]1O` [Compound No. 185]: 142%, 192% and not below 80 mg/kg.
Turning to `CO[C@H]1[C@@H](O)[C@@H](C)O[C@H](O[C@H]2[C@H](Oc3cccc4c(OC(=O)c5ccc([N+](=O)[O-])cc5)c5c(=O)oc6ccc(C)c7c(=O)oc(c34)c5c67)O[C@H](C)[C@@H]3OC(c4ccccc4)O[C@@H]32)[C@@H]1O` (stereo partly shown) [Compound No. 186], the response vs control in vivo at 40 mg/kg in the data set on P-388 leukemia cells was 176%. Also, the LD50 in data set [1] was not below 80 mg/kg.
As to `CO[C@H]1[C@@H](O)[C@@H](C)O[C@H](O[C@H]2[C@H](Oc3cccc4c(OC(=O)c5ccc(C#N)cc5)c5c(=O)oc6ccc(C)c7c(=O)oc(c34)c5c67)O[C@H](C)[C@@H]3OC(c4ccccc4Cl)O[C@@H]32)[C@@H]1O` (stereo partly shown) [Compound No. 187], in the data set with P-388 leukemia cells, the response vs control in vivo at 40 mg/kg is 130% and the response vs control in vivo at 80 mg/kg is 216%. In addition, the LD50 in data set [1] is not below 80 mg/kg.
Regarding `CCOCCC(=O)Oc1c2cccc(O[C@@H]3O[C@H](C)[C@@H]4OC(c5cccc(Cl)c5)O[C@@H]4[C@H]3O[C@H]3O[C@H](C)[C@H](O)[C@H](OC)[C@H]3O)c2c2oc(=O)c3c(C)ccc4oc(=O)c1c2c43` (stereo partly shown) [Compound No. 188], in the data set with P-388 leukemia cells, the response vs control in vivo at 40 mg/kg came to 193%. The LD50 in data set [1] was not below 60 mg/kg.
As to `CO[C@H]1[C@@H](O)[C@@H](C)O[C@H](O[C@H]2[C@H](Oc3cccc4c(OC(=O)c5ccccc5Cl)c5c(=O)oc6ccc(C)c7c(=O)oc(c34)c5c67)O[C@H](C)[C@@H]3OC(c4cccc([N+](=O)[O-])c4)O[C@@H]32)[C@@H]1O` (stereo partly shown) [Compound No. 189], in the data set with P-388 leukemia cells, the response vs control in vivo at 40 mg/kg is 146% and the response vs control in vivo at 80 mg/kg amounted to 214%. The same compound showed an LD50 in data set [1] not below 80 mg/kg.
The matching figures for `CO[C@H]1[C@@H](O)[C@@H](C)O[C@H](O[C@H]2[C@H](Oc3cccc4c(OC(=O)C5CC5C)c5c(=O)oc6ccc(C)c7c(=O)oc(c34)c5c67)O[C@H](C)[C@@H]3OC(c4ccc(Cl)cc4)O[C@@H]32)[C@@H]1O` (stereo partly shown) [Compound No. 190]: 145%, 208% and not below 80 mg/kg.
Take `CCCC(=O)Oc1c2cccc(OC3OC(C)C4OC(c5ccccc5)OC4C3OC3OC(C)C(O)C(OC)C3O)c2c2oc(=O)c3c(C)ccc4oc(=O)c1c2c43` (stereo not shown) [Compound No. 191, 6-O-(n-Butyryl)-3',4'-O-Benzylidene-Chartreusin]: the response vs control in vivo at 20 mg/kg in the data set with P-388 leukemia cells (dose b: 20 mg/kg × 3, i.v. on days 1, 5 and 9) was 155%. The compound also showed an LD50 in data set [1] not below 40 mg/kg.
On to `CCCCCC(=O)Oc1c2cccc(OC3OC(C)C4OC(c5ccccc5)OC4C3OC3OC(C)C(O)C(OC)C3O)c2c2oc(=O)c3c(C)ccc4oc(=O)c1c2c43` (stereo not shown) [Compound No. 196, 6-O-(n-Hexanoyl)-3',4'-O-Benzylidene-Chartreusin], for which the response vs control in vivo at 40 mg/kg with P-388 leukemia cells stood at 208%. This compound also came in with an LD50 in data set [1] not below 80 mg/kg.
Consider `COC1C(O)C(C)OC(OC2C(Oc3cccc4c(OC(C)=O)c5c(=O)oc6ccc(C)c7c(=O)oc(c34)c5c67)OC(C)C3OC(C)(C)OC32)C1O` (stereo not shown) [Compound No. 203, 6-O-Acetyl-3',4'-O-Isopropylidene-Chartreusin], for which the response vs control in vivo at 60 mg/kg with P-388 leukemia cells amounted to 180%. Also, in data set [1], the median lethal dose (LD50) is not below 60 mg/kg.
With `COC1C(O)C(C)OC(OC2C(Oc3cccc4c(OC(=O)C5CC=CCC5)c5c(=O)oc6ccc(C)c7c(=O)oc(c34)c5c67)OC(C)C3OC(C)(C)OC32)C1O` (stereo not shown) [Compound No. 223, 6-O-(3-Cyclohexene-1-Carbonyl)-3',4'-O-Isopropylidene-Chartreusin], in the data set with P-388 leukemia cells, the response vs control in vivo at 60 mg/kg was 172%. Further, the LD50 in data set [1] was not below 60 mg/kg.
For the compound `COC1C(O)C(C)OC(OC2C(Oc3cccc4c(OC(=O)CC(C)CC(C)(C)C)c5c(=O)oc6ccc(C)c7c(=O)oc(c34)c5c67)OC(C)C3OC(c4ccccc4)OC32)C1O` (stereo not shown) [Compound No. 236, 6-O-(3,5,5-Trimethyl-n-Hexanoyl)-3',4'-O-Benzylidene-Chartreusin], the response vs control in vivo at 40 mg/kg in the data set with P-388 leukemia cells stood at 145%. The LD50 in data set [1] was not below 80 mg/kg.
As to `COC1C(O)C(C)OC(OC2C(Oc3cccc4c(OC(=O)CCC5CCCCC5)c5c(=O)oc6ccc(C)c7c(=O)oc(c34)c5c67)OC(C)C3OC(C)(C)OC32)C1O` (stereo not shown) [Compound No. 240, 6-O-(3-Cryclohexyl-Propionyl)-3',4'-O-Isopropylidene-Chartreusin], the response vs control in vivo at 60 mg/kg in the data set with P-388 leukemia cells is 158%. The compound also came in with an LD50 in data set [1] not below 60 mg/kg.
